Data reported in patent EP0900210B1, “ANTIVIRALLY ACTIVE HETEROCYCLIC AZAHEXANE DERIVATIVES” (Novartis AG, priority 1996, dated 1997).

biological target: T1, HIV-1-protease (Human immunodeficiency virus type 1 group M subtype B, UniProt P04585); test: Inhibition of HIV-1-protease with icosapeptide substrate […] (HPLC); type: biochemical; settings: icosapeptide […] 122 µM, 20 mM MES pH 6.0, one hour at 37°C; read-out: IC50
T1 construct: made in house
Procedure: The inhibitory action of the compounds of formula I on the proteolytic activity of HIV-1-protease can be shown, for example, according to known procedures (see A. D. Richards et al., J. Biol. Chem. 265(14), 7733-7736 (1990)). In that method the inhibition of the action of HIV-1-protease (preparation: see S. Billich et al., J. Biol. Chem. 263(34), 17905-17908 (1990)) is measured in the presence of the icosapeptide […] (a synthetic substrate of HIV-1-protease, prepared by peptide synthesis in accordance with known procedures (see J. Schneider et al., Cell 54, 363-368 (1988)), which contains as substrate analogue one of the cleavage sites of the gag-precursor protein (natural substrate of HIV-1-protease). That substrate and its cleavage products are analysed by high performance liquid chromatography (HPLC).
The test compound is dissolved in dimethyl sulfoxide. The enzymatic test is carried out by adding suitable dilutions of the inhibitor in 20 mM β-morpholinoethanesulfonic acid (MES) buffer pH 6.0 to the test mixture. That mixture consists of the above-mentioned icosapeptide (122 µM) in 20 mM MES-buffer pH 6.0. 100 µl are used per test batch. The reaction is started by the addition of […] of HIV-1-protease solution and is stopped after one hour's incubation at 37°C by the addition of 10 µl of 0.3M HClO4. After centrifugation of the sample at 10 000 x g for 5 minutes, 20 µl of the resulting supernatant are applied to a 125 x 4.6 mm Nucleosil® C18-5m-HPLC column (reversed-phase material supplied by Macherey & Nagel, Düren, FRG, based on silica gel that has been charged with C18alkyl chains). The uncleaved icosapeptide and its cleavage products are eluted from the column by means of the following gradient: 100 % eluant 1 → 50 % eluant 1 + 50 % eluant 2 (eluant 1: 10 % acetonitrile, 90 % H2O, 0.1 % trifluoroacetic acid (TFA); eluant 2: 75 % acetonitrile, 25 % H2O, 0.08 % TFA) for 15 minutes, throughflow rate 1 ml/min. The quantification of the eluted peptide fragments is carried out by measuring the peak height of the cleavage product at 215 nm.
Using the test system described above with the icosapeptide […], the IC50 values given below are obtained for the following Examples: […]

Structure (SMILES) | IC50 [µM]
COC(=O)N[C@H](C(=O)NN(Cc1ccc(-c2cncs2)cc1)C[C@H](O)[C@H](Cc1ccccc1)NC(=O)[C@@H](NC(=O)OC)C(C)(C)C)C(C)C [Example 2, 1-[4-(Thiazol-5-yl)-phenyl]-4(S)-hydroxy-2-N-(N-methoxycarbonyl-(L)-valyl)-amino-5(S)-N-(N-methoxycarbonyl-(L)-tert-leucyl)amino-6-phenyl-2-azahexane] | 0.014
CC[C@H](C)[C@H](NC(=O)OC)C(=O)NN(Cc1ccc(-c2nnn(C(C)(C)c3ccccc3)n2)cc1)C[C@H](O)[C@H](Cc1ccccc1)NC(=O)[C@@H](NC(=O)OC)C(C)(C)C [Example 28, 1-{4-[2-(1-Methyl-1-phenyl-ethyl)-2H-tetrazol-5-yl]-phenyl}-4(S)-hydroxy-2-N-(N-methoxycarbonyl-(L)-iso-leucyl)amino-5(S)-N-(N-methoxycarbonyl-(L)-tert-leucyl)amino-6-phenyl-2-azahexane] | 0.083
COC(=O)N[C@H](C(=O)N[C@@H](Cc1ccccc1)[C@@H](O)CN(Cc1ccc(-c2nccs2)cc1)NC(=O)[C@@H](NC(=O)OC)C(C)(C)C)C(C)C [Example 17, 1-[4-(Thiazol-2-yl)-phenyl]-4(S)-hydroxy-2-N-(N-methoxycarbonyl-(L)-tert-leucyl)amino-5(S)-N-(N-methoxycarbonyl-(L)-valyl)amino-6-phenyl-2-azahexane] | 0.018
CC[C@H](C)[C@H](NC(=O)OC)C(=O)N[C@@H](Cc1ccccc1)[C@@H](O)CN(Cc1ccc(-c2nccs2)cc1)NC(=O)[C@@H](NC(=O)OC)C(C)C [Example 23, 1-[4-(Thiazol-2-yl)-phenyl]-4(S)-hydroxy-2-N-(N-methoxycarbonyl-(L)-valyl)amino-5(S)-N-(N-methoxycarbonyl-(L)-iso-leucyl)amino-6-phenyl-2-azahexane] | 0.034
CC[C@H](C)[C@H](NC(=O)OC)C(=O)N[C@@H](Cc1ccccc1)[C@@H](O)CN(Cc1ccc(-c2cncs2)cc1)NC(=O)[C@@H](NC(=O)OC)C(C)C [Example 12, 1-[4-(Thiazol-5-yl)-phenyl]-4(S)-hydroxy-2-N-(N-methoxycarbonyl-(L)-valyl)amino-5(S)-N-(N-methoxycarbonyl-(L)-iso-leucyl)amino-6-phenyl-2-azahexane] | 0.02
COC(=O)N[C@@H](CSC)C(=O)NN(Cc1ccc(-c2cncs2)cc1)C[C@H](O)[C@H](Cc1ccccc1)NC(=O)[C@@H](NC(=O)OC)C(C)(C)C [Example 5, 1-[4-(Thiazol-5-yl)-phenyl]-4(S)-hydroxy-2-N-(N-methoxycarbonyl-(L)-S-methylcysteinyl)amino-5(S)-N-(N-methoxycarbonyl-(L)-tert-leucyl)amino-6-phenyl-2-azahexane] | 0.04
CC[C@H](C)[C@H](NC(=O)OC)C(=O)NN(Cc1ccc(-c2cncs2)cc1)C[C@H](O)[C@H](Cc1ccccc1)NC(=O)[C@@H](NC(=O)OC)C(C)(C)C [Example 4, 1-[4-(Thiazol-5-yl)-phenyl]-4(S)-hydroxy-2-N-(N-methoxycarbonyl-(L)-iso-leucyl)amino-5(S)-N-(N-methoxycarbonyl-(L)-tert-leucyl)amino-6-phenyl-2-azahexane] | 0.038
CC[C@H](C)[C@H](NC(=O)OC)C(=O)N[C@@H](Cc1ccccc1)[C@@H](O)CN(Cc1ccc(-c2nccs2)cc1)NC(=O)[C@@H](NC(=O)OC)C(C)(C)C [Example 21, 1-[4-(Thiazol-2-yl)-phenyl]-4(S)-hydroxy-2-N-(N-methoxycarbonyl-(L)-tert-leucyl)amino-5(S)-N-(N-methoxycarbonyl-(L)-iso-leucyl)amino-6-phenyl-2-azahexane] | 0.043
CCOC(=O)N[C@H](C(=O)NN(Cc1ccc(-c2cncs2)cc1)C[C@H](O)[C@H](Cc1ccccc1)NC(=O)[C@@H](NC(=O)OC)[C@@H](C)CC)C(C)C [Example 14, 1-[4-(Thiazol-5-yl)-phenyl]-4(S)-hydroxy-2-N-(N-ethoxycarbonyl-(L)-valyl)-amino-5(S)-N-(N-methoxycarbonyl-(L)-iso-leucyl)amino-6-phenyl-2-azahexane] | 0.031
COC(=O)N[C@H](C(=O)NN(Cc1ccc(-c2ccccn2)cc1)C[C@H](O)[C@H](Cc1ccccc1)NC(=O)[C@@H](NC(=O)OC)C(C)(C)C)C(C)C [Example 48, 1-[4-(Pyridin-2-yl)-phenyl]-4(S)-hydroxy-2-N-(N-methoxy-carbonyl-(L)-valyl)amino-5(S)-N-(N-methoxycarbonyl-(L)-tert-leucyl)amino-6-phenyl-2-azahexane] | 0.031
CCOC(=O)N[C@H](C(=O)NN(Cc1ccc(-c2nccs2)cc1)C[C@H](O)[C@H](Cc1ccccc1)NC(=O)[C@@H](NC(=O)OC)C(C)C)C(C)C [Example 19, 1-[4-(Thiazol-2-yl)-phenyl]-4(S)-hydroxy-2-N-(N-ethoxycarbonyl-(L)-valyl)amino-5(S)-N-(N-methoxycarbonyl-(L)-valyl)amino-6-phenyl-2-azahexane] | 0.022
COC(=O)N[C@H](C(=O)N[C@@H](Cc1ccccc1)[C@@H](O)CN(Cc1ccc(-c2cncs2)cc1)NC(=O)[C@@H](NC(=O)OC)C(C)(C)C)C(C)(C)C [Example 3, 1-[4-(Thiazol-5-yl)-phenyl]-4(S)-hydroxy-5(S)-2,5-bis[N-(N-methoxycarbonyl-(L)-tert-leucyl)amino]-6-phenyl-2-azahexane] | 0.041
COC(=O)N[C@H](C(=O)N[C@@H](Cc1ccccc1)[C@@H](O)CN(Cc1ccc(-c2nnn(C(C)(C)c3ccccc3)n2)cc1)NC(=O)[C@@H](NC(=O)OC)C(C)(C)C)C(C)(C)C [Example 25, 1-{4-[2-(1-Methyl-1-phenyl-ethyl)-2H-tetrazol-5-yl]-phenyl}-4(S)-hydroxy-5(S)-2,5-bis[N-(N-methoxycarbonyl-(L)-tert-leucyl)amino]-6-phenyl-2-azahexane] | 0.1
COC(=O)N[C@@H](CSC)C(=O)NN(Cc1ccc(-c2cncs2)cc1)C[C@H](O)[C@H](Cc1ccccc1)NC(=O)[C@@H](NC(=O)OC)C(C)C [Example 10, 1-[4-(Thiazol-5-yl)-phenyl]-4(S)-hydroxy-2-N-(N-methoxycarbonyl-(L)-S-methylcysteinyl)amino-5(S)-N-(N-methoxycarbonyl-(L)-valyl)amino-6-phenyl-2-azahexane] | 0.02
CCOC(=O)N[C@H](C(=O)N[C@@H](Cc1ccccc1)[C@@H](O)CN(Cc1ccc(-c2ccccn2)cc1)NC(=O)[C@@H](NC(=O)OCC)C(C)C)C(C)C [Example 38, 1-[4-(Pyridin-2-yl)-phenyl]-4(S)-hydroxy-5(S)-2,5-bis[N-(N-ethoxycarbonyl-(L)-valyl)amino]-6-phenyl-2-azahexane] | 0.085
CC[C@H](C)[C@H](NC(=O)OC)C(=O)N[C@@H](Cc1ccccc1)[C@@H](O)CN(Cc1ccc(-c2cncs2)cc1)NC(=O)[C@@H](NC(=O)OC)[C@@H](C)CC [Example 13, 1-[4-(Thiazol-5-yl)-phenyl]-4(S)-hydroxy-5(S)-2,5-bis[N-(N-methoxycarbonyl-(L)-iso-leucyl)amino]-6-phenyl-2-azahexane] | 0.032
COC(=O)N[C@H](C(=O)N[C@@H](Cc1ccccc1)[C@@H](O)CN(Cc1ccc(-c2nnn(C(C)(C)C)n2)cc1)NC(=O)[C@@H](NC(=O)OC)C(C)(C)C)C(C)C [Example 35, 1-[4-(2-tert-Butyl-2H-tetrazol-5-yl)-phenyl]-4(S)-hydroxy-2-N-(N-methoxycarbonyl-(L)-tert-leucyl)amino-5(S)-N-(N-methoxycarbonyl-(L)-valyl)amino-6-phenyl-2-azahexane] | 0.058
CC[C@H](C)[C@H](NC(=O)OC)C(=O)NN(Cc1ccc(-c2nnn[nH]2)cc1)C[C@H](O)[C@H](Cc1ccccc1)NC(=O)[C@@H](NC(=O)OC)C(C)(C)C [Example 29, 1-[4-(Tetrazol-5-yl)-phenyl]-4(S)-hydroxy-2-N-(N-methoxycarbonyl-(L)-iso-leucyl)amino-5(S)-N-(N-methoxycarbonyl-(L)-tert-leucyl)amino-6-phenyl-2-azahexane] | 0.014
CC[C@H](C)[C@H](NC(=O)OC)C(=O)N[C@@H](Cc1ccccc1)[C@@H](O)CN(Cc1ccc(-c2nnn(C(C)(C)c3ccccc3)n2)cc1)NC(=O)[C@@H](NC(=O)OC)C(C)(C)C [Example 31, 1-{4-[2-(1-Methyl-1-phenyl-ethyl)-2H-tetrazol-5-yl]-phenyl}-4(S)-hydroxy-2-N-(N-methoxycarbonyl-(L)-tert-leucyl)amino-5(S)-N-(N-methoxycarbonyl-(L)-iso-leucyl)amino-6-phenyl-2-azahexane] | 0.171
